Where two headings read alike, the source gives them in different places.
Tested on: M. mycetomatis genome strain MM55
Assay: CLSI M38-A2 based in vitro susceptibility screening (XTT or resazurin), growth at fixed concentration
Type: cell-based, Madurella mycetomatis
Settings: Madurella mycetomatis
[1] = 25 uM, mean of replicates, MM55, read-out: Percentage survival at 25um, 25 uM mean
[2] = 25 uM, replicate A, MM55, read-out: Percentage survival at 25um, 25 um A
[3] = 25 uM, replicate B, MM55, read-out: Percentage survival at 25um, 25 uM B
[4] = 25 uM, replicate C, MM55, read-out: Percentage survival at 25um, 25 uM C
[5] = mean of replicates, MM55, read-out: Percentage survival at 100um, 100 uM mean
[6] = replicate 1, MM55, read-out: Percentage survival at 100um, 100 uM A
[7] = replicate 2, MM55, read-out: Percentage survival at 100um, 100 uM A
[8] = replicate 3, MM55, read-out: Percentage survival at 100um, 100 uM A
[9] = 25 uM, mean of three replicates, read-out: Percentage survival at 25um, 25 uM mean
[10] = 25 uM, replicate A, read-out: Percentage survival at 25um, 25 um A
[11] = 25 uM, replicate B, read-out: Percentage survival at 25um, 25 uM B
[12] = 25 uM, replicate C, read-out: Percentage survival at 25um, 25 uM C
[13] = first replicate column, read-out: Percentage survival at 100um, 100 uM A
[14] = mean of three replicates, read-out: Percentage survival at 100um, 100 uM mean
[15] = second replicate column, read-out: Percentage survival at 100um, 100 uM A
[16] = third replicate column, read-out: Percentage survival at 100um, 100 uM A
[17] = 25 uM, replicate A, M. mycetomatis MM55, read-out: Percentage survival at 25um, 25 um A
[18] = mean of three, M. mycetomatis MM55, read-out: Percentage survival at 100um, 100 uM mean
[19] = replicate 1, M. mycetomatis MM55, read-out: Percentage survival at 100um, 100 uM A (first replicate column)
[20] = replicate 2, M. mycetomatis MM55, read-out: Percentage survival at 100um, 100 uM A (second replicate column)
[21] = replicate 3, M. mycetomatis MM55, read-out: Percentage survival at 100um, 100 uM A (third replicate column)
[22] = replicate 1, read-out: Percentage survival at 100um, 100 uM A (first replicate column)
[23] = replicate 2, read-out: Percentage survival at 100um, 100 uM A (second replicate column)
[24] = replicate 3, read-out: Percentage survival at 100um, 100 uM A (third replicate column)
[25] = 25 uM, mean of replicates, read-out: Percentage survival at 25um, 25 uM mean
[26] = mean of replicates, read-out: Percentage survival at 100um, 100 uM mean
[27] = replicate 1, read-out: Percentage survival at 100um, 100 uM A
[28] = replicate 2, read-out: Percentage survival at 100um, 100 uM A
[29] = replicate 3, read-out: Percentage survival at 100um, 100 uM A

| Compound | activity at 25 µM [1] | activity at 25 µM [2] | activity at 25 µM [3] | activity at 25 µM [4] | activity at 100 µM [5] | activity at 100 µM [6] | activity at 100 µM [7] | activity at 100 µM [8] | activity at 25 µM [9] | activity at 25 µM [10] | activity at 25 µM [11] | activity at 25 µM [12] | activity at 100 µM [14] | further results |
| --- | --- | --- | --- | --- | --- | --- | --- | --- | --- | --- | --- | --- | --- | --- |
| CC(N)C12CC3CC(CC(C3)C1)C2 (stereo not shown) [MMV637855] | 86% | 78.5% | 82.6% | 96.9% | 60.7% | 60.1% | 57.9% | 64% | – | – | – | – | – | – |
| CC(C)(C)NC(=O)[C@@H]1C[C@@H]2CCCC[C@@H]2CN1C[C@@H](O)[C@H](Cc1ccccc1)NC(=O)[C@H](CC(N)=O)NC(=O)c1ccc2ccccc2n1 [MMV637879] | – | – | – | – | – | – | – | – | 92.5% | 98.2% | 97.6% | 81.5% | 93.3% | activity at 100 µM [13]: 102%; activity at 100 µM [15]: 95.3%; activity at 100 µM [16]: 82.8% |
| CC1(C)[C@H](C(=O)O)N2C(=O)C[C@H]2S1(=O)=O [MMV637945] | – | – | – | – | – | – | – | – | – | – | – | – | – | activity at 25 µM [17]: 97.1%; activity at 100 µM [18]: 98.9%; activity at 100 µM [19]: 99.5%; activity at 100 µM [20]: 112%; activity at 100 µM [21]: 85.4%; activity at 25 µM (read-out: Percentage survival at 25um, 25 uM B): 95.1%; activity at 25 µM (read-out: Percentage survival at 25um, 25 uM C): 84.6%; activity at 25 µM (read-out: Percentage survival at 25um, 25 uM mean): 92.3% |
| C=C(C)[C@@H]1CC[C@]2(C(=O)O)CC[C@]3(C)[C@H](CC[C@@H]4[C@@]5(C)CC[C@H](O)C(C)(C)[C@@H]5CC[C@]43C)[C@@H]12 [MMV638198] | 78.4% | 65.7% | 92.3% | 77.1% | 79.4% | 83.2% | 80.2% | 74.7% | – | – | – | – | – | – |
| COC1CC2CCC(C)C(O)(O2)C(=O)C(=O)N2CCCCC2C(=O)OC(C(C)CC2CCC(OCCO)C(OC)C2)CC(=O)C(C)/C=C(\C)C(O)C(OC)C(=O)C(C)CC(C)/C=C/C=C/C=C/1C (stereo not shown) [MMV639951] | – | – | – | – | – | – | – | – | 61.4% | 64.2% | 62.2% | 57.7% | 51.7% | activity at 100 µM [13]: 69.2%; activity at 100 µM [15]: 46.7%; activity at 100 µM [16]: 39.4% |
| O=C(O)c1ccc(-n2nc(-c3ccccc3O)nc2-c2ccccc2O)cc1 [MMV640014] | – | – | – | – | – | – | – | – | – | 94.6% | 88.3% | 78% | – | activity at 25 µM (25 uM, mean, read-out: Percentage survival at 25um, 25 uM mean): 87%; activity at 100 µM (mean, read-out: Percentage survival at 100um, 100 uM mean): 78.4%; activity at 100 µM (replicate (first column), read-out: Percentage survival at 100um, 100 uM A): 85.5%; activity at 100 µM (replicate (second column), read-out: Percentage survival at 100um, 100 uM A): 73.2%; activity at 100 µM (replicate (third column), read-out: Percentage survival at 100um, 100 uM A): 76.5% |
| Cn1cncc1[C@@](N)(c1ccc(Cl)cc1)c1ccc2c(c1)c(-c1cccc(Cl)c1)cc(=O)n2C [MMV658803] | 43.8% | 0.79% | 64.2% | 66.2% | 36.3% | 13.3% | 45% | 50.7% | – | – | – | – | – | – |
| CCc1nc2ccc(Cl)cn2c1C(=O)NCc1ccc(N2CCC(c3ccc(OC(F)(F)F)cc3)CC2)cc1 [MMV687696] | – | – | – | – | – | – | – | – | 93.6% | 95% | 93.8% | 91.9% | 84.8% | activity at 100 µM [22]: 87.8%; Percent fungal survival at 100 µM [23]: 86.4%; activity at 100 µM [24]: 80.3% |
| C[C@H]1COc2c(N3CCN(C)CC3)c(F)cc3c(=O)c(C(=O)O)cn1c23 [MMV687798] | 96.2% | 101% | 105% | 82.9% | 91.4% | 97.4% | 91.1% | 85.7% | – | – | – | – | – | – |
| CC(C)/N=c1\cc2n(-c3ccc(Cl)cc3)c3ccccc3nc-2cc1Nc1ccc(Cl)cc1 [MMV687800] | – | – | – | – | – | – | – | – | – | – | – | – | – | activity at 25 µM (25 uM, mean of three, M. mycetomatis MM55, read-out: Percentage survival at 25um, 25 uM mean): 71%; activity at 25 µM [17]: 77.2%; activity at 25 µM (25 uM, replicate B, M. mycetomatis MM55, read-out: Percentage survival at 25um, 25 uM B): 68.8%; activity at 25 µM (25 uM, replicate C, M. mycetomatis MM55, read-out: Percentage survival at 25um, 25 uM C): 67.2%; activity at 100 µM [18]: 71.4%; activity at 100 µM [19]: 65.1%; Percent fungal survival at 100 µM [20]: 75.2%; activity at 100 µM [21]: 73.9% |
| CC[C@@H](CO)NCCN[C@@H](CC)CO [MMV687801] | – | – | – | – | – | – | – | – | – | 86.9% | 87.9% | 88.8% | – | activity at 25 µM [25]: 87.9%; activity at 100 µM [26]: 85.7%; activity at 100 µM [27]: 96.9%; activity at 100 µM [28]: 79.4%; activity at 100 µM [29]: 80.8% |
| O=[N+]([O-])c1cn2c(n1)OC[C@@H](OCc1ccc(OC(F)(F)F)cc1)C2 [MMV688755] | – | – | – | – | – | – | – | – | – | 91.8% | 92.4% | 71.7% | – | activity at 25 µM [25]: 85.3%; activity at 100 µM [26]: 85.9%; activity at 100 µM [27]: 75%; activity at 100 µM [28]: 105%; activity at 100 µM [29]: 77.3% |
| CC(=O)NC[C@H]1CN(c2ccc(N3CCSCC3)c(F)c2)C(=O)O1 [MMV688756] | – | – | – | – | – | – | – | – | – | 94.4% | 99.9% | 94.2% | – | activity at 25 µM [25]: 96.1%; activity at 100 µM [26]: 92.4%; activity at 100 µM [27]: 100%; activity at 100 µM [28]: 85.2%; activity at 100 µM [29]: 91.6% |
| CC(=O)Oc1ccccc1C(=O)Nc1ncc([N+](=O)[O-])s1 [MMV688991] | 103% | 90% | 88.2% | 131% | 68% | 76.1% | 57.8% | 70.1% | – | – | – | – | – | – |
| COc1nc2ccc(Br)cc2cc1[C@@H](c1ccccc1)[C@@](O)(CCN(C)C)c1cccc2ccccc12 [MMV689758] | – | – | – | – | – | – | – | – | 98.1% | 102% | 87.7% | 104% | 84.6% | activity at 100 µM [22]: 80.8%; Percent fungal survival at 100 µM [23]: 75.9%; activity at 100 µM [24]: 97.2% |
| Cc1cc(CCCOc2c(C)cc(-c3noc(C(F)(F)F)n3)cc2C)on1 [MMV690467] | 115% | 152% | 84.5% | 108% | 79.3% | 70.9% | 103% | 64.3% | – | – | – | – | – | – |
| COc1ccccc1CN[C@H]1C2CCN(CC2)[C@H]1C(c1ccccc1)c1ccccc1 [MMV690480] | – | – | – | – | – | – | – | – | 83.2% | 61.4% | 107% | 81.2% | 27.7% | activity at 100 µM [13]: -1.66%; activity at 100 µM [15]: 2.79%; activity at 100 µM [16]: 82% |
| CCOCc1nc2c(N)nc3ccccc3c2n1CC(C)(C)O [MMV690547] | – | – | – | – | – | – | – | – | 98% | 95.3% | 111% | 87.7% | 90.4% | activity at 100 µM [22]: 97%; Percent fungal survival at 100 µM [23]: 86.2%; activity at 100 µM [24]: 87.9% |
| FC(F)(F)c1cc(C(F)(F)F)c2ccc3nc(-c4nnco4)cn3c2n1 [MMV690555] | 91.6% | 100% | 96.8% | 77.9% | 81.1% | 87% | 83.1% | 73.1% | – | – | – | – | – | – |
| O=C(NC1CCCc2c1[nH]c1ccc(Cl)cc21)c1ccccn1 (stereo not shown) [MMV690621] | – | – | – | – | – | – | – | – | 79% | 75.2% | 91.8% | 70.2% | -0.446% | activity at 100 µM [13]: -4.95%; activity at 100 µM [15]: -2.06%; activity at 100 µM [16]: 5.67% |

— paper PMC8815882, “Screening the pandemic response box identified benzimidazole carbamates, Olorofim and ravuconazole as promising drug candidates for the treatment of eumycetoma” (PLoS Neglected Tropical Diseases, 2022)
